From PubChem BioAssay (NCI)
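Assay format: 96-well plates, 48-hour exposure. Here, GI50 denotes the concentration required for 50% inhibition of growth. The concentration for full growth arrest is given as TGI.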

Tests used:
Assay in all cases: NCI anticancer screen, dose series, 48 h
[1] = system: SF-268 CNS
[2] = system: DMS 273 small cell lung
[3] = system: NCI-H460 lung
[4] = system: 786-0 renal
[5] = system: UACC-257 melanoma
[6] = system: SF-539 CNS
[7] = system: SNB-78 CNS
[8] = system: DLD-1 colon
[9] = system: M19-MEL melanoma
[10] = system: UO-31 renal
[11] = system: T-47D breast
[12] = system: HS 578T breast

SMILES	TGI [1] [µM]	TGI [2] [µM]	TGI [3] [µM]	TGI [4] [µM]	TGI [5] [µM]	TGI [6] [µM]	TGI [7] [µM]	TGI [8] [µM]	TGI [9] [µM]	TGI [10] [µM]	GI50 [1] [µM]	GI50 [3] [µM]	GI50 [4] [µM]	GI50 [5] [µM]	GI50 [11] [µM]	TGI [11] [µM]	GI50 [12] [µM]	TGI [12] [µM]	GI50 [6] [µM]	GI50 [10] [µM]
C[C@]1(CO)CCC[C@@]2(C)C1CC[C@H]1CC3C[C@]12CC[C@]3(C)O (stereo not given in full)	> 100	> 100	36.8	> 100	> 100	> 100	> 100	> 100	–	–	–	–	–	–	–	–	–	–	–	–
O=CC[C@H]1CCc2ccccc2C12CCC(=O)CC2	> 100	–	> 100	> 100	> 100	> 100	–	> 100	> 100	> 100	–	–	–	–	–	–	–	–	–	–
COc1cc2c(cc1Nc1nc(Nc3ccsc3C(N)=O)c3cc[nH]c3n1)N(C(=O)CN(C)C)CCC2(C)C	5.75	–	5.3	6.82	4.34	7.05	–	–	–	4.69	2.6	0.889	3.06	0.0753	3.08	7.11	1.11	5.13	3.35	1.09
CN1c2ccccc2C(C)(C)C12C=Cc1cc(O)ccc1O2 (stereo not given)	10.5	–	6.45	8.96	12.1	4.15	–	–	–	19.5	2.76	2.28	2.77	2.94	4	16.9	1.97	5.17	1.94	4.02
COc1ccc(Cn2cc3c(c2-c2ccc(OC)cc2)CCc2cnoc2-3)cc1	> 100	–	1.96	> 100	> 100	2.13	–	–	–	> 100	0.686	0.347	0.658	1.57	0.533	> 100	0.301	1.14	0.307	0.797
CC(=O)c1ccc(NC(=O)C(=O)Nn2c(=S)[nH]c3ccccc3c2=O)cc1	> 100	–	> 100	> 100	> 100	> 100	> 100	> 100	> 100	> 100	–	–	–	–	–	–	–	–	–	–
N#Cc1c(N)nc(N2CCOCC2)c(C#N)c1-c1cccnc1	> 100	–	> 100	> 100	> 100	> 100	–	–	–	> 100	> 100	> 100	> 100	93.1	34	66.7	66.1	> 100	> 100	24.1
CCNC(=O)c1cc2c(-c3cc(C(C)(C)O)ccc3Oc3c(C)cc(F)cc3C)cn(C)c(=O)c2[nH]1	18.6	–	17.6	19.2	18.5	13.2	–	–	–	10.9	3.58	3.3	1.15	2.27	1.08	18	0.753	21.5	1.92	0.1
